Assay: oxidation (decay) of psilocin over time, applicant's own data

CN(C)CCc1c[nH]c2cccc(O)c12 [psilocin]
decay of psilocin (oxidation) (after 5 hours, moist and/or high light environment): ~25% | decay of psilocin (oxidation) (at 20 hours when shielded from light): 40-60% | decay of psilocin (oxidation) (within 30 minutes, moist and/or high light environment): about 10%

— patent US20240207336A1, “PURIFIED PS[…] […] ACIDIFIED ACETONE” (PSILO SCIENTIFIC LTD, priority 2021, published 2024)
